Read-outs that look alike come from different tables or passages of the source.
Tests used:
OCUM-2MD3 cells [1] = assay: Cell growth inhibition, OCUM-2MD3 parent cells (Test Example 7); assay type: cell-based, human; details: OCUM-2MD3 parent cell
[2] = system: AZD4547 resistant OCUM-2MD3 cells; assay: Cell growth inhibition, AZD4547 resistant OCUM-2MD3 cells (Test Example 7); assay type: cell-based, human
OCUM-2MD3 cells [3] = details: Homo sapiens, OCUM-2MD3, 72 h
Procedure: Human-derived gastric cancer OCUM-2MD3 cells, which overexpressed FGFR2, were subcultured daily in a Dulbecco's modified Eagle's medium (DMEM) containing 10% fetal bovine serum (FBS) at a cell density of not more than 80%. In order to initiate a test of the cell growth-inhibitory effect of the compounds, the OCUM-2MD3 cells were suspended in the above DMEM medium and seeded in a 96-well flat-bottom plate so that each well contained 3,000 cells. Then, the cells were cultured in an incubator containing 5% carbon dioxide gas at 37° C. for one day. […] The DMSO solution of the test compound was diluted with the medium used for cultivation, and the diluted solution was added to each well of the cell culture plate so that the final concentration of DMSO became 0.5%. Then, the cells were cultured in an incubator containing 5% carbon dioxide gas at 37° C. for 72 hours. The number of cells was measured at the time of the addition of the test compound and 72 hours later after culture by using a Cell Counting Kit-8 (produced by Dojindo Laboratories) according to a protocol recommended by Dojindo Laboratories. […] After completion of the reaction, the absorbance at a wavelength of 450 nm was measured by a microplate reader. […]
T: absorbance of well to which test compound was added
C: absorbance of well to which test compound was not added
C0: absorbance of well measured before addition of compound

[4] = biological target: purified recombinant human FGFR2 protein (Homo sapiens (Human), UniProt P21802); assay: Inhibitory effect on FGFR2 kinase activity (Test Example 1); assay type: biochemical; details: ATP 75 μM
purified recombinant human FGFR2 protein, sequence (P21802 22-821): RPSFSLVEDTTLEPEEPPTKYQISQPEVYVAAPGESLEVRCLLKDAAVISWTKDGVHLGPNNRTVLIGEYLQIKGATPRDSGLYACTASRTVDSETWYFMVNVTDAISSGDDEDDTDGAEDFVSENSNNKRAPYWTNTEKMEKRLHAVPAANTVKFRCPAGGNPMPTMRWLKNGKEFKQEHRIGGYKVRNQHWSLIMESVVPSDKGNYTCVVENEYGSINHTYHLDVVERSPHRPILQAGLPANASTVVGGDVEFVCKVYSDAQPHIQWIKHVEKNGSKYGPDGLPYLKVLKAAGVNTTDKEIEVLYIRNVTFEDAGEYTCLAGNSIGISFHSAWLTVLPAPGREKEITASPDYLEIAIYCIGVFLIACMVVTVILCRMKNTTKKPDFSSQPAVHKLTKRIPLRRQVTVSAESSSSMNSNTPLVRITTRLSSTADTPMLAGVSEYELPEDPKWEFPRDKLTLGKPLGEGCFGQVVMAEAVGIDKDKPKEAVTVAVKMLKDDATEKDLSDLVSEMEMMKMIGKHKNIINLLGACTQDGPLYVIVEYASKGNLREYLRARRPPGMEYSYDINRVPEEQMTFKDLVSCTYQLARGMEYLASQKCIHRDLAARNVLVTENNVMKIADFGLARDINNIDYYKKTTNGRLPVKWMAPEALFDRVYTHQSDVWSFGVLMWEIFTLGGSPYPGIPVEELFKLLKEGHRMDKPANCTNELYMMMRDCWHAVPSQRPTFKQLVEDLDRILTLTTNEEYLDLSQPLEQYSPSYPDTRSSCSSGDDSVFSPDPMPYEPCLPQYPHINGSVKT
Procedure: EDTA (final concentration: 30 mM) diluted with a separation buffer (Caliper Life Sciences, Inc.) was added thereto to terminate the kinase reaction. […] The level of phosphorylation was determined from the quantitative ratio.

COc1cc(CCc2cc(NC(=O)c3ccc(N4CC(C)NC(C)C4)cc3)n[nH]2)cc(OC)c1 (centres unmarked) [AZD4547]
IC50 (OCUM-2MD3 cells [1]): 6.1 nM | IC50 ([2]; read-out: Cell growth inhibition, IC50 (nM) AZD4547 resistant cells, AZD4547 resistant OCUM-2MD3 cells, range in brackets): 159 nM

CCN1CCN(c2ccc(Nc3cc(N(C)C(=O)Nc4c(Cl)c(OC)cc(OC)c4Cl)ncn3)cc2)CC1 [BGJ398]
IC50 (OCUM-2MD3 cells [1]; Homo sapiens): 7.6 nM | IC50 ([2]; Homo sapiens, OCUM-2MD3, read-out: Cell growth inhibition, IC50 (nM) AZD4547 resistant cells): 55.6 nM

CCOc1cc(C#Cc2nn(C3CN(C(=O)/C=C/CN(C)C)C3)c3ncnc(N)c23)cc(OCC)c1 [Ex. Compound 25, 1-(3-(4-amino-3-((3,5-diethoxyphenyl)ethynyl)-1H-pyrazolo[3,4-d]pyrimidin-1-yl)azetidin-1-yl)-4-(dimethylamino)but-2-en-1-one]
GI50 (OCUM-2MD3 cells [3]): 0.013 µM

C=CC(=O)N1C[C@@H](n2cc(C#Cc3cc(OC)cc(OC)c3)c3c(N)ncnc32)C[C@H]1C(=O)OC [Ex. Compound 66, (2S,4S)-methyl 1-acryloyl-4-(4-amino-5-((3,5-dimethoxyphenyl)ethynyl)-7H-pyrrolo[2,3-d]pyrimidin-7-yl)pyrrolidine-2-carboxylate]
IC50 [4]: < 0.0003 µM | GI50 (OCUM-2MD3 cells [3]): < 0.0046 µM

CC(C)c1cc(C#Cc2nn([C@H]3CCN(C(=O)/C=C/CN(C)C)C3)c3ncnc(N)c23)cc(C(C)C)c1 [Ref. Ex. Compound 4, (S)-1-(3-(4-amino-3-((3,5-diisopropylphenyl)ethynyl)-1H-pyrazolo[3,4-d]pyrimidin-1-yl)pyrrolidin-1-yl)-4-(dimethylamino)but-2-en-1-one]
IC50 [4]: > 10 µM
